Reference: PubChem BioAssay (NCI)
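48-hour exposure; five concentrations; linearly interpolated endpoints. GI50: concentration for 50% inhibition of growth. TGI: total growth inhibition.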

Columns and labels:
Experiment in all cases: NCI-60 cell line screen, 48 h
[1] = tested on: A549 NSCLC
[2] = tested on: UACC-257 melanoma
[3] = tested on: MOLT-4 leukemia
[4] = tested on: M14 melanoma
[5] = tested on: MCF7 breast
[6] = tested on: HS 578T breast
[7] = tested on: BT-549 breast
[8] = tested on: A498 renal
[9] = tested on: TK-10 renal
[10] = tested on: OVCAR-5 ovarian
[11] = tested on: IGROV1 ovarian
[12] = tested on: SN12C renal
[13] = tested on: HOP-92 NSCLC
[14] = tested on: NCI/ADR-RES ovarian
[15] = tested on: SW-620 colon
[16] = tested on: CAKI-1 renal
[17] = tested on: SNB-19 CNS
[18] = tested on: NCI-H522 lung
[19] = tested on: MDA-MB-231 breast
[20] = tested on: SK-MEL-28 melanoma
[21] = tested on: K-562 leukemia
[22] = tested on: HCT-116 colon
[23] = tested on: KM12 colon
[24] = tested on: HT29 colon
[25] = tested on: OVCAR-8 ovarian
[26] = tested on: COLO 205 colon
[27] = tested on: SF-268 CNS
[28] = tested on: RPMI-8226 leukemia
[29] = tested on: HL-60(TB) leukemia
[30] = tested on: NCI-H226 lung
[31] = tested on: NCI-H460 lung
[32] = tested on: RXF 393 renal
[33] = tested on: UACC-62 melanoma
[34] = tested on: SK-OV-3 ovarian
[35] = tested on: NCI-H23 lung
[36] = tested on: OVCAR-3 ovarian
[37] = tested on: U251 CNS
[38] = tested on: ACHN renal
[39] = tested on: SK-MEL-5 melanoma
[40] = tested on: T-47D breast
[41] = tested on: SF-539 CNS
[42] = tested on: DU-145 prostate
[43] = tested on: SF-295 CNS
[44] = tested on: PC-3 prostate
[45] = tested on: UO-31 renal
[46] = tested on: 786-0 renal
[47] = tested on: SNB-75 CNS
[48] = tested on: SK-MEL-2 melanoma
[49] = tested on: HOP-62 NSCLC
[50] = tested on: HCT-15 colon
[51] = tested on: EKVX NSCLC
[52] = tested on: MDA-MB-435
[53] = tested on: LOX IMVI melanoma
[54] = tested on: HCC-2998 colon
[55] = tested on: CCRF-CEM leukemia
[56] = tested on: MALME-3M melanoma
[57] = tested on: OVCAR-4 ovarian

SMILES: COC1C(CO)OC(n2c3ccccc3c3c4c(c5c6ccccc6[nH]c5c32)C(=O)NC4=O)C(O)C1O (centres undefined)
- GI50 [1]: 0.621 µM
- GI50 [2]: 0.103 µM
- GI50 [3]: 0.0202 µM
- GI50 [4]: 0.0441 µM
- TGI [4]: 0.347 µM
- GI50 [5]: 0.0336 µM
- TGI [5]: 2.07 µM
- GI50 [6]: 0.18 µM
- TGI [6]: 0.757 µM
- GI50 [7]: 0.12 µM
- TGI [7]: 1.85 µM
- GI50 [8]: 0.016 µM
- TGI [8]: 0.0998 µM
- GI50 [9]: 0.143 µM
- TGI [9]: 0.548 µM
- GI50 [10]: 0.27 µM
- TGI [10]: 2.24 µM
- GI50 [11]: 0.0844 µM
- TGI [11]: 3.49 µM
- GI50 [12]: < 0.0187 µM
- TGI [12]: 0.111 µM
- GI50 [13]: 0.0792 µM
- TGI [13]: 1.22 µM
- GI50 [14]: 1.37 µM
- TGI [14]: > 43.7 µM
- GI50 [15]: < 0.01 µM
- TGI [15]: 0.616 µM
- GI50 [16]: < 0.0184 µM
- TGI [16]: 0.0937 µM
- GI50 [17]: 0.0277 µM
- TGI [17]: 6.64 µM
- GI50 [18]: < 0.01 µM
- TGI [18]: 0.153 µM
- GI50 [19]: 0.0595 µM
- TGI [19]: 0.343 µM
- GI50 [20]: 0.156 µM
- TGI [20]: 8.49 µM
- GI50 [21]: < 0.0145 µM
- GI50 [22]: 0.016 µM
- TGI [22]: 0.146 µM
- GI50 [23]: 0.0176 µM
- TGI [23]: 0.55 µM
- GI50 [24]: 0.23 µM
- TGI [24]: > 37.7 µM
- GI50 [25]: 0.0327 µM
- TGI [25]: 1.48 µM
- GI50 [26]: < 0.036 µM
- TGI [26]: 2.14 µM
- GI50 [27]: 0.0189 µM
- TGI [27]: 0.586 µM
- GI50 [28]: 2.22 µM
- TGI [28]: 25.2 µM
- GI50 [29]: 0.0114 µM
- TGI [29]: 0.034 µM
- GI50 [30]: 0.0113 µM
- TGI [30]: 0.108 µM
- GI50 [31]: 0.848 µM
- TGI [31]: 6.61 µM
- GI50 [32]: 0.114 µM
- TGI [32]: 0.877 µM
- GI50 [33]: 0.0169 µM
- TGI [33]: 0.0902 µM
- GI50 [34]: 0.0876 µM
- TGI [34]: 2.22 µM
- GI50 [35]: 0.0951 µM
- TGI [35]: 1.12 µM
- GI50 [36]: 0.0785 µM
- TGI [36]: 0.369 µM
- GI50 [37]: < 0.01 µM
- TGI [37]: 0.141 µM
- GI50 [38]: < 0.0191 µM
- TGI [38]: 0.0928 µM
- GI50 [39]: 0.0133 µM
- TGI [39]: 0.0608 µM
- GI50 [40]: < 0.0126 µM
- TGI [40]: 0.117 µM
- GI50 [41]: < 0.01 µM
- TGI [41]: 0.0359 µM
- GI50 [42]: 0.0439 µM
- TGI [42]: 0.572 µM
- GI50 [43]: 0.129 µM
- TGI [43]: 0.673 µM
- GI50 [44]: 0.206 µM
- TGI [44]: 7.06 µM
- GI50 [45]: 0.173 µM
- TGI [45]: 0.676 µM
- GI50 [46]: 0.0467 µM
- TGI [46]: 1.12 µM
- GI50 [47]: 0.158 µM
- TGI [47]: 3.85 µM
- GI50 [48]: 0.234 µM
- TGI [48]: 0.856 µM
- GI50 [49]: 0.0514 µM
- TGI [49]: 1.2 µM
- GI50 [50]: 0.524 µM
- TGI [50]: > 31.9 µM
- GI50 [51]: 0.326 µM
- TGI [51]: 2.34 µM
- GI50 [52]: 0.0633 µM
- TGI [52]: 0.901 µM
- GI50 [53]: < 0.01 µM
- TGI [53]: 0.0352 µM
- GI50 [54]: 0.127 µM
- TGI [54]: 1.5 µM
- GI50 [55]: < 0.01 µM
- TGI [55]: 2.42 µM
- GI50 [56]: < 0.018 µM
- GI50 [57]: 0.342 µM
- TGI [57]: 17.7 µM
